Here are results for three compounds from patent US20100035994A1, “NOVEL HYDRATE FORM OF O-DESMETHYL VENLAFAXINE SUCCINATE” (priority 2006, published 2010).

In general, solubility refers to the concentration that dissolves in the medium under given conditions. A higher solubility goes with a readily soluble substance.

The conditions of series [1]: converted into form III on milling; per U.S. Pat. No. 6,673,838; cited from earlier work.
For series [2] the following is noted: in vivo; cited from earlier work.
Series [3] is described as follows: solubility of ODV succinate forms. It is filed as physicochemical. As to conditions: novel hydrate form of the present invention.

In the case of `CN(C)CC(c1ccc(O)cc1)C1(O)CCCCC1.O.O=C(O)CCC(=O)O` (stereo not drawn) [ODV succinate monohydrate form I], in series [1], the “stability of polymorphic form on milling” value was “unstable”.
As for `CN(C)CC(c1ccc(O)cc1)C1(O)CCCCC1.O=C(O)CCC(=O)O` (stereo not drawn) [ODV succinate, O-desmethyl venlafaxine succinate], the “absorption in the gastrointestinal tract” value in series [2] is “well absorbed”.
For `CN(C)CC(c1ccc(O)cc1)C1(O)CCCCC1.O=C(O)CCC(=O)O` (stereo not drawn) [novel hydrate form of ODV succinate, O-desmethyl venlafaxine succinate], the solubility in series [3] was determined as 55 mg/mL.
